# Measured values as given in patent US20250115595A1, “INHIBITORS OF HYPOXIA-INDUCIBLE FACTORS” (The Johns Hopkins University, priority 2021, published 2025).
# System: cytokine mRNAs
# Assay: RT-qPCR array of mouse cytokines and chemokines in Hepa1-6 tumors
# Assay type: in vivo
# Details: Hepa1-6 tumors, vs vehicle
# Method: Total RNA from Hepa1-6 tumors was analyzed using the RT2 Profiler PCR Array of Mouse Cytokines and Chemokines (Qiagen, catalog number 330231 PAMM-150ZA) according to the manufacturer's instructions.
smiles,measurement,value
"Brc1ccc2c(-c3csc(-c4c[nH]c5c(Br)cccc45)n3)c[nH]c2c1 [Compound 32-134D, 4-(6-bromo-1H-indol-3-yl)-2-(7-bromo-1H-indol-3-yl)thiazole]",Adipoq mRNA Fold Change Test Group/Control Group,0.43
same,Adipoq mRNA Fold Up- or Down-Regulation Test Group/Control Group,−2.31
same,Adipoq mRNA X axis (Log2(fold change)),−1.21
same,Bmp2 mRNA Fold Change Test Group/Control Group,0.51
same,Bmp2 mRNA Fold Up- or Down-Regulation Test Group/Control Group,−1.95
same,Bmp2 mRNA X axis (Log2(fold change)),−0.96
same,Bmp4 mRNA Fold Change Test Group/Control Group,0.64
same,Bmp4 mRNA Fold Up- or Down-Regulation Test Group/Control Group,−1.96
same,Bmp4 mRNA X axis (Log2(fold change)),−0.64
same,Bmp6 mRNA Fold Change Test Group/Control Group,0.44
same,Bmp6 mRNA Fold Up- or Down-Regulation Test Group/Control Group,−2.27
same,Bmp6 mRNA X axis (Log2(fold change)),−1.18
same,Bmp7 mRNA Fold Change Test Group/Control Group,0.70
same,Bmp7 mRNA Fold Up- or Down-Regulation Test Group/Control Group,−1.43
same,Bmp7 mRNA X axis (Log2(fold change)),−0.51
same,Cc15 mRNA Fold Change Test Group/Control Group,0.92
same,Cc15 mRNA Fold Up- or Down-Regulation Test Group/Control Group,−1.09
same,Cc15 mRNA X axis (Log2(fold change)),−0.13
same,Cc120 mRNA Fold Change Test Group/Control Group,0.42
same,Cc120 mRNA Fold Up- or Down-Regulation Test Group/Control Group,−2.41
same,Cc120 mRNA X axis (Log2(fold change)),−1.27
same,Ccl1 mRNA Fold Change Test Group/Control Group,0.63
same,Ccl1 mRNA Fold Up- or Down-Regulation Test Group/Control Group,−1.58
same,Ccl1 mRNA X axis (Log2(fold change)),−0.66
same,Ccl2 mRNA Fold Change Test Group/Control Group,1.35
same,Ccl2 mRNA Fold Up- or Down-Regulation Test Group/Control Group,1.35
same,Ccl2 mRNA X axis (Log2(fold change)),0.44
same,Ccl3 mRNA Fold Change Test Group/Control Group,1.06
same,Ccl3 mRNA Fold Up- or Down-Regulation Test Group/Control Group,1.06
same,Ccl3 mRNA X axis (Log2(fold change)),0.09
same,Ccl4 mRNA Fold Change Test Group/Control Group,0.72
same,Ccl4 mRNA Fold Up- or Down-Regulation Test Group/Control Group,−1.39
same,Ccl4 mRNA X axis (Log2(fold change)),−0.47
same,Ccl7 mRNA Fold Change Test Group/Control Group,1.03
same,Ccl7 mRNA Fold Up- or Down-Regulation Test Group/Control Group,1.03
same,Ccl7 mRNA X axis (Log2(fold change)),0.04
same,Ccl11 mRNA Fold Change Test Group/Control Group,1.03
same,Ccl11 mRNA Fold Up- or Down-Regulation Test Group/Control Group,1.03
same,Ccl11 mRNA X axis (Log2(fold change)),0.04
same,Ccl12 mRNA Fold Change Test Group/Control Group,4.11
same,Ccl12 mRNA Fold Up- or Down-Regulation Test Group/Control Group,4.11
same,Ccl12 mRNA X axis (Log2(fold change)),2.04
same,Ccl17 mRNA Fold Change Test Group/Control Group,0.68
same,Ccl17 mRNA Fold Up- or Down-Regulation Test Group/Control Group,−1.47
same,Ccl17 mRNA X axis (Log2(fold change)),−0.56
same,Ccl19 mRNA Fold Change Test Group/Control Group,0.54
same,Ccl19 mRNA Fold Up- or Down-Regulation Test Group/Control Group,−1.86
same,Ccl19 mRNA X axis (Log2(fold change)),−0.89
same,Ccl22 mRNA Fold Change Test Group/Control Group,0.31
same,Ccl22 mRNA Fold Up- or Down-Regulation Test Group/Control Group,−3.18
same,Ccl22 mRNA X axis (Log2(fold change)),−1.67
same,Ccl24 mRNA Fold Change Test Group/Control Group,1.21
same,Ccl24 mRNA Fold Up- or Down-Regulation Test Group/Control Group,1.21
same,Ccl24 mRNA X axis (Log2(fold change)),0.27
same,Cd40lg mRNA Fold Change Test Group/Control Group,0.52
same,Cd40lg mRNA Fold Up- or Down-Regulation Test Group/Control Group,−1.91
same,Cd40lg mRNA X axis (Log2(fold change)),−0.93
same,Cd70 mRNA Fold Change Test Group/Control Group,0.24
same,Cd70 mRNA Fold Up- or Down-Regulation Test Group/Control Group,−4.19
same,Cd70 mRNA X axis (Log2(fold change)),−2.07
same,Cntf mRNA Fold Change Test Group/Control Group,0.38
same,Cntf mRNA Fold Up- or Down-Regulation Test Group/Control Group,−2.61
same,Cntf mRNA X axis (Log2(fold change)),−1.39
same,Csf1 mRNA Fold Change Test Group/Control Group,1.02
same,Csf1 mRNA Fold Up- or Down-Regulation Test Group/Control Group,1.02
same,Csf1 mRNA X axis (Log2(fold change)),0.03
same,Csf2 mRNA Fold Change Test Group/Control Group,0.38
same,Csf2 mRNA Fold Up- or Down-Regulation Test Group/Control Group,−2.64
same,Csf2 mRNA X axis (Log2(fold change)),−1.40
same,Csf3 mRNA Fold Change Test Group/Control Group,0.50
same,Csf3 mRNA Fold Up- or Down-Regulation Test Group/Control Group,−1.99
same,Csf3 mRNA X axis (Log2(fold change)),−0.99
same,Ctf1 mRNA Fold Change Test Group/Control Group,0.19
same,Ctf1 mRNA Fold Up- or Down-Regulation Test Group/Control Group,−5.18
same,Ctf1 mRNA X axis (Log2(fold change)),−2.37
same,Cx3cl1 mRNA Fold Change Test Group/Control Group,0.53
same,Cx3cl1 mRNA Fold Up- or Down-Regulation Test Group/Control Group,−1.89
same,Cx3cl1 mRNA X axis (Log2(fold change)),−0.92
same,Cxcl1 mRNA Fold Change Test Group/Control Group,0.67
same,Cxcl1 mRNA Fold Up- or Down-Regulation Test Group/Control Group,1.49
same,Cxcl1 mRNA X axis (Log2(fold change)),−0.57
same,Cxcl3 mRNA Fold Change Test Group/Control Group,0.87
same,Cxcl3 mRNA Fold Up- or Down-Regulation Test Group/Control Group,−1.14
same,Cxcl3 mRNA X axis (Log2(fold change)),−0.19
same,Cxcl5 mRNA Fold Change Test Group/Control Group,1.05
same,Cxcl5 mRNA Fold Up- or Down-Regulation Test Group/Control Group,1.05
same,Cxcl5 mRNA X axis (Log2(fold change)),0.07
same,Cxcl9 mRNA Fold Change Test Group/Control Group,1.64
same,Cxcl9 mRNA Fold Up- or Down-Regulation Test Group/Control Group,1.64
same,Cxcl9 mRNA X axis (Log2(fold change)),0.71
same,Cxcl10 mRNA Fold Change Test Group/Control Group,1.44
same,Cxcl10 mRNA Fold Up- or Down-Regulation Test Group/Control Group,1.44
same,Cxcl10 mRNA X axis (Log2(fold change)),0.53
same,Cxcl11 mRNA Fold Change Test Group/Control Group,0.45
same,Cxcl11 mRNA Fold Up- or Down-Regulation Test Group/Control Group,−2.24
same,Cxcl11 mRNA X axis (Log2(fold change)),−1.16
same,Cxcl12 mRNA Fold Change Test Group/Control Group,2.26
same,Cxcl12 mRNA Fold Up- or Down-Regulation Test Group/Control Group,2.26
same,Cxcl12 mRNA X axis (Log2(fold change)),1.17
same,Cxcl13 mRNA Fold Change Test Group/Control Group,0.39
same,Cxcl13 mRNA Fold Up- or Down-Regulation Test Group/Control Group,−2.57
same,Cxcl13 mRNA X axis (Log2(fold change)),−1.36
same,Cxcl16 mRNA Fold Change Test Group/Control Group,0.61
same,Cxcl16 mRNA Fold Up- or Down-Regulation Test Group/Control Group,−1.65
same,Cxcl16 mRNA X axis (Log2(fold change)),−0.72
same,Fasl mRNA Fold Change Test Group/Control Group,0.59
same,Fasl mRNA Fold Up- or Down-Regulation Test Group/Control Group,−1.70
same,Fasl mRNA X axis (Log2(fold change)),−0.77
same,Gpi1 mRNA Fold Change Test Group/Control Group,0.64
same,Gpi1 mRNA Fold Up- or Down-Regulation Test Group/Control Group,−1.57
same,Gpi1 mRNA X axis (Log2(fold change)),−0.65
same,Hc mRNA Fold Change Test Group/Control Group,1.77
same,Hc mRNA Fold Up- or Down-Regulation Test Group/Control Group,1.77
same,Hc mRNA X axis (Log2(fold change)),0.82
same,Lif mRNA Fold Change Test Group/Control Group,0.40
same,Lif mRNA Fold Up- or Down-Regulation Test Group/Control Group,−2.48
same,Lif mRNA X axis (Log2(fold change)),−1.31
same,Lta mRNA Fold Change Test Group/Control Group,0.34
same,Lta mRNA Fold Up- or Down-Regulation Test Group/Control Group,−2.96
same,Lta mRNA X axis (Log2(fold change)),−1.57
same,Ltb mRNA Fold Change Test Group/Control Group,0.63
same,Ltb mRNA Fold Up- or Down-Regulation Test Group/Control Group,−1.58
same,Ltb mRNA X axis (Log2(fold change)),−0.66
same,Mif mRNA Fold Change Test Group/Control Group,1.12
same,Mif mRNA Fold Up- or Down-Regulation Test Group/Control Group,1.12
same,Mif mRNA X axis (Log2(fold change)),0.17
same,Mstn mRNA Fold Change Test Group/Control Group,0.21
